This is an account of results in patent US11566022B2, “3-(5-methoxy-1-oxoisoindolin-2-yl)piperidine-2,6-dione derivatives and uses thereof” (NOVARTIS AG, priority 2019, dated 2023).

The assay deals with HiBit-WIZ fusion protein (Homo sapiens, UniProt O95785+Q96SW2). In words: Quantification of WIZ protein levels in HiBit tag fusion protein assay (WIZ HiBit assay in 293T cells). On the set-up: Dmax: dose or concentration left out as unconfirmed. Format: cell-based. Particulars: for Dmax / remaining activity at up to 25 µM: HEK-293T, 293T cells; for Dmax: 100 minus Amax, read-out: % degradation of WIZ (100-Amax); for remaining activity at up to 25 µM: DMSO-normalized, curve-fitted percentage of WIZ-HiBit remaining at 25 uM, read-out: WIZ Amax; for DC50: WIZ HiBit assay in 293T cells, 10-point, 5-fold dose response, highest concentration 25 μM, about 18 hours, read-out: WIZ AC50. In general terms: With HiBiT, luminescence reflects the tagged protein that the partner subunit can reach.
HiBit-WIZ fusion protein, sequence (O95785 whole entry, the tested form may be a part): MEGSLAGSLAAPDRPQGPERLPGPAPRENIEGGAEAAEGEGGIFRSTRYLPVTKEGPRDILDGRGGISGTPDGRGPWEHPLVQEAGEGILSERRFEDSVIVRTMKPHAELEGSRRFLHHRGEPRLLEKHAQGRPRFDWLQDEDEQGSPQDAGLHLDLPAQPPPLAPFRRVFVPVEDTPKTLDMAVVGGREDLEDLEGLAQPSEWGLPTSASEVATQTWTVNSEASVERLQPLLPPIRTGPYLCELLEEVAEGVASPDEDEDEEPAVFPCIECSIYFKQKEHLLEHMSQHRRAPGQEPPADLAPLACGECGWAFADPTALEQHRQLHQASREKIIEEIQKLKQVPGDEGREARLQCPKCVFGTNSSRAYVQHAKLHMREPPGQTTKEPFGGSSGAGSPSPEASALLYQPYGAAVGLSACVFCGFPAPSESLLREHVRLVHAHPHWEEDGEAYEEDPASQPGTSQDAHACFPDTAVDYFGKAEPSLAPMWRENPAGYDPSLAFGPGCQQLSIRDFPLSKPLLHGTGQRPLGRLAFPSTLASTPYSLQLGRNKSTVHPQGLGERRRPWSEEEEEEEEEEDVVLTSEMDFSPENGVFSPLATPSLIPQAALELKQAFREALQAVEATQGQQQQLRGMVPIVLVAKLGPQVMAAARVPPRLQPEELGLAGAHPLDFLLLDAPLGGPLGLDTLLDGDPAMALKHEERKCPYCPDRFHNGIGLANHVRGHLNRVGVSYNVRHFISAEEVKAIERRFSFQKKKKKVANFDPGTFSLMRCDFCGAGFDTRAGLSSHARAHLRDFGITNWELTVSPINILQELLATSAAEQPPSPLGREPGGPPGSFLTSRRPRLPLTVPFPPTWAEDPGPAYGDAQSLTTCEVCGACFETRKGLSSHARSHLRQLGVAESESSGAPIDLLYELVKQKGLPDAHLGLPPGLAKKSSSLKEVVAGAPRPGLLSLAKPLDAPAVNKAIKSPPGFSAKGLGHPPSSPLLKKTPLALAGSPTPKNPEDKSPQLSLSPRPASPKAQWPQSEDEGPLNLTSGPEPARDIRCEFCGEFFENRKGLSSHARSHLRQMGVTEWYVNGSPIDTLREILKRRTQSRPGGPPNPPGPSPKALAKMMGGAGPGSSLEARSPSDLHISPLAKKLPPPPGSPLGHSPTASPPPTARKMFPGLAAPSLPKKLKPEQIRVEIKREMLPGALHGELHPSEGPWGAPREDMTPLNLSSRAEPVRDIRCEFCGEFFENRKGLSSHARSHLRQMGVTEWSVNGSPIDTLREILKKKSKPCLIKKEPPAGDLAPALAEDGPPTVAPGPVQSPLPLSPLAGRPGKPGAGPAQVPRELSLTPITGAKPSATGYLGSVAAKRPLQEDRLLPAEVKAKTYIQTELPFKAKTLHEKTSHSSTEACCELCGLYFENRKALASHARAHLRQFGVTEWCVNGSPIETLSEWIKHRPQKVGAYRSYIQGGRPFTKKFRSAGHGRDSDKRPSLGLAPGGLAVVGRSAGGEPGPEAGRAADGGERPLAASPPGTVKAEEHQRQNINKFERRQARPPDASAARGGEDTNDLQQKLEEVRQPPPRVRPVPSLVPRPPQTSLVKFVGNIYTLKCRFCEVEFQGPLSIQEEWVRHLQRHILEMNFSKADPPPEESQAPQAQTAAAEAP
HiBit-WIZ fusion protein, sequence (Q96SW2 whole entry, the tested form may be a part): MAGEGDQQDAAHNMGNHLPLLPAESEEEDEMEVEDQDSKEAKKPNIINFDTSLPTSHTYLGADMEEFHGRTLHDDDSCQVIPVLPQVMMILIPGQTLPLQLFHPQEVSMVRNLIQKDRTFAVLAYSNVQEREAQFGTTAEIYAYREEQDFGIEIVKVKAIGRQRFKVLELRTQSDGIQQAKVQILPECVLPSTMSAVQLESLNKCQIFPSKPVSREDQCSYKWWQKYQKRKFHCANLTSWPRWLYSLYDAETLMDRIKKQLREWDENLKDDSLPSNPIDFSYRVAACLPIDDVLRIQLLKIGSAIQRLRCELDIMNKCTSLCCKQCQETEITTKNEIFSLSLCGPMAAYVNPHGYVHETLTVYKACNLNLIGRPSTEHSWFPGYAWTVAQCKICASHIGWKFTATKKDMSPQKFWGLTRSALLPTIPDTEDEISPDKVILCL
HiBit-WIZ fusion protein, sequence (Q16531 whole entry partner, the tested form may be a part): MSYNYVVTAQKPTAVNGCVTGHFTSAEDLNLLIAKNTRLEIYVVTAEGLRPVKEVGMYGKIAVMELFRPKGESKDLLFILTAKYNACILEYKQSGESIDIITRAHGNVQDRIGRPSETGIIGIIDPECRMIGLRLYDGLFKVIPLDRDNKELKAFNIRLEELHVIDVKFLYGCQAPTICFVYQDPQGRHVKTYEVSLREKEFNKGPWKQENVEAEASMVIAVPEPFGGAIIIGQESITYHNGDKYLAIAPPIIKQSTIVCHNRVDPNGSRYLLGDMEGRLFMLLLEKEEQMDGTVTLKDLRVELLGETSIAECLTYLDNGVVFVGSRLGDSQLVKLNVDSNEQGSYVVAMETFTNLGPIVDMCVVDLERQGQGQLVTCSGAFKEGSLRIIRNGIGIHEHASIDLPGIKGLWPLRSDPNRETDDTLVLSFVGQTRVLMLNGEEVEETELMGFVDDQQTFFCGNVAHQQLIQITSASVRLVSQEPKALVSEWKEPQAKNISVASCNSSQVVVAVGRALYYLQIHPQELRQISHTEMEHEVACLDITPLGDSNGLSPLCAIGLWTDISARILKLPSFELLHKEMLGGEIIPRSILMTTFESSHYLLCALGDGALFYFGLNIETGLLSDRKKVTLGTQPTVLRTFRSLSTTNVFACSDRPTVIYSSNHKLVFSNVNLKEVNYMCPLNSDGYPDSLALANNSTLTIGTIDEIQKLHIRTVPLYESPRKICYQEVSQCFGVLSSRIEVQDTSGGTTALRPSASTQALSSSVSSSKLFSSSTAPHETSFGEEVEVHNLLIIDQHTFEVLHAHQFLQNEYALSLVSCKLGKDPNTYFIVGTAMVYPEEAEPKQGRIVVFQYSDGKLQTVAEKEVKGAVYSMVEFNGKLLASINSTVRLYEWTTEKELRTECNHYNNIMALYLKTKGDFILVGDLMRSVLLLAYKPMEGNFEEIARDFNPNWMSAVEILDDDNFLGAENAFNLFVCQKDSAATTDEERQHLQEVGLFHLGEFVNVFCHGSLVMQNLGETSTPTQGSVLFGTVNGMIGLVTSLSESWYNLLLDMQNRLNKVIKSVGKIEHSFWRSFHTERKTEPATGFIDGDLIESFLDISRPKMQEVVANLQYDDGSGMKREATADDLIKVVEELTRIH

Regarding `COc1ccc(C(C)(C)C(=O)N2CCCC[C@H]2COc2ccc3c(c2)CN(C2CCC(=O)NC2=O)C3=O)cc1` (stereo partly drawn) [Compound I-72fz], the Dmax amounted to 9.1%, the remaining activity at up to 25 µM came to 90.9% and the DC50 is over 25 µM.
Taken in the same sequence, the figures for `O=C1CCC(N2Cc3cc(OC[C@@H]4CCCCN4C(=O)c4cccnc4N4CCCC4)ccc3C2=O)C(=O)N1` (stereo partly drawn) [Compound I-72gb] were 23.9%, 76.1% and over 25 µM.
For the molecule `CC1(c2ccc(C(=O)N3CCCC[C@H]3COc3ccc4c(c3)CN(C3CCC(=O)NC3=O)C4=O)cc2)COC1` (stereo partly drawn) [Compound I-72gc], the Dmax was 58.3%, the remaining activity at up to 25 µM was 41.7% and the DC50 was determined as 10.1 µM.
For `CC(C)c1cc(C(=O)N2CCCC[C@H]2COc2ccc3c(c2)CN(C2CCC(=O)NC2=O)C3=O)n(C)n1` (stereo partly drawn) [Compound I-72gd], in that order: 80.1%, 19.9% and 0.919 µM.
For `CN(C)c1cccc(C(=O)N2CCCC[C@H]2COc2ccc3c(c2)CN(C2CCC(=O)NC2=O)C3=O)c1` (stereo partly drawn) [Compound I-72gg], in that order: 24%, 76% and over 25 µM.
Taken in the same sequence, the figures for `N#Cc1ccc(CCC(=O)N2CCCC[C@H]2COc2ccc3c(c2)CN(C2CCC(=O)NC2=O)C3=O)cc1` (stereo partly drawn) [Compound I-72gh] were 10.9%, 89.1% and over 25 µM.
For the molecule `CC(C)c1ccccc1C(=O)N1CCCC[C@H]1COc1ccc2c(c1)CN(C1CCC(=O)NC1=O)C2=O` (stereo partly drawn) [Compound I-72gi], the Dmax came to 14.9%, the remaining activity at up to 25 µM was 85.1% and the DC50 was over 25 µM.
Take `O=C1CCC(N2Cc3cc(OC[C@@H]4CCCCN4C(=O)C4CCCOC4)ccc3C2=O)C(=O)N1` (stereo partly drawn) [Compound I-72gj]: the Dmax was 2.3%, the remaining activity at up to 25 µM was determined as 97.7% and the DC50 is over 25 µM.
Taken in the same sequence, the figures for `O=C1CCC(N2Cc3cc(OC[C@@H]4CCCCN4C(=O)CCc4c[nH]cn4)ccc3C2=O)C(=O)N1` (stereo partly drawn) [Compound I-72gk] were 6.5%, 93.5% and over 25 µM.
Taken in the same sequence, the figures for `COc1ccc(C(=O)N2CCCC[C@H]2COc2ccc3c(c2)CN(C2CCC(=O)NC2=O)C3=O)nn1` (stereo partly drawn) [Compound I-72gm] were 6.8%, 93.2% and over 25 µM.
Taken in the same sequence, the figures for `COc1cc(C(=O)N2CCCC[C@H]2COc2ccc3c(c2)CN(C2CCC(=O)NC2=O)C3=O)c(F)cn1` (stereo partly drawn) [Compound I-72gn] were 26.4%, 73.6% and over 25 µM.
Consider `Cc1onc(-c2ccccc2)c1CC(=O)N1CCCC[C@H]1COc1ccc2c(c1)CN(C1CCC(=O)NC1=O)C2=O` (stereo partly drawn) [Compound I-72gp], for which the Dmax worked out at 14.4%, the remaining activity at up to 25 µM turned out to be 85.6% and the DC50 was over 25 µM.
For `Cc1nn(-c2ccccc2)c(C)c1C(=O)N1CCCC[C@H]1COc1ccc2c(c1)CN(C1CCC(=O)NC1=O)C2=O` (stereo partly drawn) [Compound I-72gs], in that order: 57.9%, 42.1% and 7.39 µM.
Taken in the same sequence, the figures for `C[C@H](CC(=O)N1CCCC[C@H]1COc1ccc2c(c1)CN(C1CCC(=O)NC1=O)C2=O)c1ccccc1` (stereo partly drawn) [Compound I-72gu] were 0.2%, 99.8% and over 25 µM.
With `CCn1cc(C(=O)N2CCCC[C@H]2COc2ccc3c(c2)CN(C2CCC(=O)NC2=O)C3=O)c(C)n1` (stereo partly drawn) [Compound I-72gw], the Dmax turned out to be 19.1%, the remaining activity at up to 25 µM turned out to be 80.9% and the DC50 is over 25 µM.
For `Cc1nnc(-c2ccc(C(=O)N3CCCC[C@H]3COc3ccc4c(c3)CN(C3CCC(=O)NC3=O)C4=O)cc2)o1` (stereo partly drawn) [Compound I-72gy], in that order: 44.1%, 55.9% and over 25 µM.
For `Cn1nccc1-c1cccc(C(=O)N2CCCC[C@H]2COc2ccc3c(c2)CN(C2CCC(=O)NC2=O)C3=O)c1` (stereo partly drawn) [Compound I-72gz], in that order: 13.7%, 86.3% and over 25 µM.
Taken in the same sequence, the figures for `O=C1CCC(N2Cc3cc(OC[C@@H]4CCCCN4C(=O)c4cccc(N5CCCC5=O)c4)ccc3C2=O)C(=O)N1` (stereo partly drawn) [Compound I-72hf] were 6.8%, 93.2% and over 25 µM.
For `Cc1cc(O)cc(C(=O)N2CCCC[C@H]2COc2ccc3c(c2)CN(C2CCC(=O)NC2=O)C3=O)c1` (stereo partly drawn) [Compound I-72hi], the Dmax was 13.8%, the remaining activity at up to 25 µM is 86.2% and the DC50 was over 25 µM.
Taken in the same sequence, the figures for `CC(C)(C)c1cc(CC(=O)N2CCCC[C@H]2COc2ccc3c(c2)CN(C2CCC(=O)NC2=O)C3=O)on1` (stereo partly drawn) [Compound I-72hj] were 0.7%, 99.3% and over 25 µM.
For `COc1ccc(CC(=O)N2CCCC[C@H]2COc2ccc3c(c2)CN(C2CCC(=O)NC2=O)C3=O)cn1` (stereo partly drawn) [Compound I-72hk], in that order: 9.2%, 90.8% and over 25 µM.
For `O=C1CCC(N2Cc3cc(OC[C@@H]4CCCCN4C(=O)c4ccc5nccnc5c4)ccc3C2=O)C(=O)N1` (stereo partly drawn) [Compound I-72hq], in that order: 13.3%, 86.7% and over 25 µM.
`O=C1CCC(N2Cc3cc(OC[C@@H]4CCCCN4C(=O)c4cccc(OC(F)F)c4)ccc3C2=O)C(=O)N1` (stereo partly drawn) [Compound I-72hx]: the Dmax was determined as 5.1%, the remaining activity at up to 25 µM was 94.9% and the DC50 is over 25 µM.
`Cn1ccc(-c2cccc(C(=O)N3CCCC[C@H]3COc3ccc4c(c3)CN(C3CCC(=O)NC3=O)C4=O)c2)n1` (stereo partly drawn) [Compound I-72id]: the Dmax was 11%, the remaining activity at up to 25 µM is 89% and the DC50 was over 25 µM.
Taken in the same sequence, the figures for `CN1CCOc2cc(C(=O)N3CCCC[C@H]3COc3ccc4c(c3)CN(C3CCC(=O)NC3=O)C4=O)cnc21` (stereo partly drawn) [Compound I-72ij] were 68.7%, 31.3% and 2.77 µM.
For `Cn1nc(C(=O)N2CCCC[C@H]2COc2ccc3c(c2)CN(C2CCC(=O)NC2=O)C3=O)cc1-c1ccccc1` (stereo partly drawn) [Compound I-72ir], in that order: 35.7%, 64.3% and over 25 µM.
For `COc1cc(OC)nc(C(=O)N2CCCC[C@H]2COc2ccc3c(c2)CN(C2CCC(=O)NC2=O)C3=O)n1` (stereo partly drawn) [Compound I-72is], in that order: 0.9%, 99.1% and over 25 µM.
With `CCN1CCC[C@@H](C(=O)N2CCCC[C@H]2COc2ccc3c(c2)CN(C2CCC(=O)NC2=O)C3=O)C1` (stereo partly drawn) [Compound I-72it], the Dmax was 5.9%, the remaining activity at up to 25 µM was 94.1% and the DC50 is over 25 µM.
With `Cc1cc(-n2c(C)cc(C(=O)N3CCCC[C@H]3COc3ccc4c(c3)CN(C3CCC(=O)NC3=O)C4=O)c2C)no1` (stereo partly drawn) [Compound I-72iu], the Dmax came to 71.7%, the remaining activity at up to 25 µM stood at 28.3% and the DC50 stood at 2 µM.
For `O=C1CCC(N2Cc3cc(OC[C@@H]4CCCCN4C(=O)C45CC(F)(C4)C5)ccc3C2=O)C(=O)N1` (stereo partly drawn) [Compound I-72iv], in that order: 2.2%, 97.8% and over 25 µM.
For `O=C1CCC(N2Cc3cc(OC[C@@H]4CCCCN4C(=O)c4[nH]nc5c4CCCC5)ccc3C2=O)C(=O)N1` (stereo partly drawn) [Compound I-72ix], in that order: 13%, 87% and over 25 µM.
For `O=C1CCC(N2Cc3cc(OC[C@@H]4CCCCN4C(=O)c4cccc5cnccc45)ccc3C2=O)C(=O)N1` (stereo partly drawn) [Compound I-72j], in that order: 21.5%, 78.5% and over 25 µM.
`O=C1CCC(N2Cc3cc(OC[C@@H]4CCCCN4C(=O)CCn4c(=O)oc5ccccc54)ccc3C2=O)C(=O)N1` (stereo partly drawn) [Compound I-72jb]: the Dmax is 0.3%, the remaining activity at up to 25 µM was 99.7% and the DC50 is over 25 µM.
Take `CCc1ncc(C(=O)N2CCCC[C@H]2COc2ccc3c(c2)CN(C2CCC(=O)NC2=O)C3=O)s1` (stereo partly drawn) [Compound I-72jf]: the Dmax is 34.2%, the remaining activity at up to 25 µM turned out to be 65.8% and the DC50 is over 25 µM.
Taken in the same sequence, the figures for `CN(C)CC(=O)N1CCCC[C@H]1COc1ccc2c(c1)CN(C1CCC(=O)NC1=O)C2=O` (stereo partly drawn) [Compound I-72jk] were 7.2%, 92.8% and over 25 µM.
Taken in the same sequence, the figures for `O=C1CCC(N2Cc3cc(OC[C@@H]4CCCCN4C(=O)CN4CCCCC4)ccc3C2=O)C(=O)N1` (stereo partly drawn) [Compound I-72jq] were 11.7%, 88.3% and over 25 µM.
For `CC(C)Oc1cccc(C(=O)N2CCCC[C@H]2COc2ccc3c(c2)CN(C2CCC(=O)NC2=O)C3=O)c1` (stereo partly drawn) [Compound I-72ju], in that order: 14.5%, 85.5% and over 25 µM.
As to `O=C1CCC(N2Cc3cc(OC[C@@H]4CCCCN4C(=O)c4ccccc4Cn4cncn4)ccc3C2=O)C(=O)N1` (stereo partly drawn) [Compound I-72jx], the Dmax is 6.1%, the remaining activity at up to 25 µM is 93.9% and the DC50 is over 25 µM.
Taken in the same sequence, the figures for `CC(C)Oc1ccccc1C(=O)N1CCCC[C@H]1COc1ccc2c(c1)CN(C1CCC(=O)NC1=O)C2=O` (stereo partly drawn) [Compound I-72jy] were 11.3%, 88.7% and over 25 µM.
